Results on 7 molecules are retold here after patent US10011627B2, “C-aryl glucoside derivative, preparation methods thereof, and medical applications thereof” (YOUNGENE THERAPEUTICS CO., LTD, priority 2013, dated 2018).

In one test the target is SGLT2 (Homo sapiens (Human), UniProt P31639). Nature of the test: Activity assay of SGLT2: [14C] methyl α-D-glucopyranoside uptake in SGLT2 transiently transferred HEK293 cells. The format is cell-based. The note with it: 2 hours at 37° C. On the procedure:
(§1) Activity Assay of SGLT1 and SGLT2:
(§2) The following method was used to determine the inhibitory activity of the compounds of the present invention on SGLT1 and SGLT2. The experimental method is summarized as follows:
(§3) SGLT1 and SGLT2 transiently transferred HEK293 cells (prepared according to the existing literature “Diabetes, 57, 1723-1729, 2008”, wherein cDNA of SGLT1 and SGLT2 was purchased from Origene company) were seeded in a 96-well plate. The density of the cells was 1-1.5×10^4. The cells were cultured at 37° C. and 5% CO2 for 48 hours, and then washed twice with 200 μL sodium-free buffer. 90 μL sodium-containing buffer of the test compound at different concentrations was added to the well. Each test compound was repeated in three wells for each concentration. The cells were cultured at 37° C. for 15 minutes, then 10 μL (in number 0.1 μCi [^14C]) Methyl α-D-glucopyranoside was added to each well of the 96-well plate. The cells were further cultured at 37° C. for 2 hours, then the supernatant was discarded. The cells were washed twice with pre-chilled sodium-free buffer and then dissolved in 100 μL NaOH (200 mM). 100 μL scintillation solution was added, and mixed well. Scintiloscope was used for the quantitative detection of ^14C.
(§4) IC50 values of the compounds of various examples were calculated from the […] at different concentrations.

Another test has as its target SGLT1 (Homo sapiens (Human), UniProt P13866). Nature of the test: Activity assay of SGLT1: [14C] methyl α-D-glucopyranoside uptake in SGLT1 transiently transferred HEK293 cells. The note with it: for IC50: SGLT1 transiently transferred HEK293 cells, [14C] methyl α-D-glucopyranoside, 2 hours at 37° C.; for inhibition of SGLT1 (conclusion in words): conclusion from the IC50 table. Type of test: cell-based. The procedure:
as §1, §2, §3, §4

Structures are written as SMILES.

Sequence of SGLT1 (P13866 whole entry, species assumed): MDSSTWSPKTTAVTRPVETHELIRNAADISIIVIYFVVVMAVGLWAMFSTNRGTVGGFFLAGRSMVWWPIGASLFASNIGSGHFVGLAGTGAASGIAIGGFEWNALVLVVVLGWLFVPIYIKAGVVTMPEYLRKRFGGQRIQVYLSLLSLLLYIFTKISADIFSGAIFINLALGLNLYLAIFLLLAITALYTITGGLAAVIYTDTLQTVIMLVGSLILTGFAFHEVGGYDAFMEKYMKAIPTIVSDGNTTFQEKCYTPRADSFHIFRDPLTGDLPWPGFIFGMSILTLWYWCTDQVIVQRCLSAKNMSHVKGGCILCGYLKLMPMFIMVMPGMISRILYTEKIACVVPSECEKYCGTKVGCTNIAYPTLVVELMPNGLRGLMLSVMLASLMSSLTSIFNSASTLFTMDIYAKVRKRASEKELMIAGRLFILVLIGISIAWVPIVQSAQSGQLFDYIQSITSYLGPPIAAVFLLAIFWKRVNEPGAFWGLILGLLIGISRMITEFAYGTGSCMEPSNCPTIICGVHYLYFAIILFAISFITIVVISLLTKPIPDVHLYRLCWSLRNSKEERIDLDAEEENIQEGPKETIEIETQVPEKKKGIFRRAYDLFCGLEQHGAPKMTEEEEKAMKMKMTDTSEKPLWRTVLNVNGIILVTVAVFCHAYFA
Sequence of SGLT2 (P31639 whole entry, species assumed): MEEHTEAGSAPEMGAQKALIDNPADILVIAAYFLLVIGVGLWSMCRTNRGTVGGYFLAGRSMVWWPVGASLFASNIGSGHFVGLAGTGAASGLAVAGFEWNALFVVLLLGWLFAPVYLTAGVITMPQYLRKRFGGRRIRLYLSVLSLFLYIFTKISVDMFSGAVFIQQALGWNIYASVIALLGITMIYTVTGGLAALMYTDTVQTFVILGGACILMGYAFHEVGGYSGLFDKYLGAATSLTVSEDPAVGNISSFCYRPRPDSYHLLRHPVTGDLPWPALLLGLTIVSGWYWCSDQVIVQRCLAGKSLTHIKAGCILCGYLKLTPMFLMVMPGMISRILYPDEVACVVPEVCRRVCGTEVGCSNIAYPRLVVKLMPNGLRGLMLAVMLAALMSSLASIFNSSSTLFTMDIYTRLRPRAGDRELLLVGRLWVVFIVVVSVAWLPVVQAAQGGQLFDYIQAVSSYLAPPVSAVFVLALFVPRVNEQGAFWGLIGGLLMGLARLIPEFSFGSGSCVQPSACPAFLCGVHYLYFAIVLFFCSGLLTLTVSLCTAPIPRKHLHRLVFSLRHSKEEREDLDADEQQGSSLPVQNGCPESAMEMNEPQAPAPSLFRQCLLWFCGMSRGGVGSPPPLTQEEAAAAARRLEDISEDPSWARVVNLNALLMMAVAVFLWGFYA

For the molecule `OC[C@@]12CO[C@@](c3ccc(Cl)c(Cc4ccc5c(c4)OCCO5)c3)(O1)[C@H](O)[C@@H](O)[C@@H]2O` [Example 1, (1S,2S,3S,4R,5S)-5-(4-chloro-3-((2,3-dihydrobenzo[b][1,4]dioxin-6-yl)methyl)phenyl)-1-(hydroxymethyl)-6,8-dioxabicyclo[3.2.1]octane-2,3,4-triol], the IC50 – broadly, the concentration that gives 50% inhibition – against SGLT2 was 0.58 nM; against SGLT1, 953 nM.
At SGLT2, `OC[C@@]12CO[C@@](c3ccc(C4CC4)c(Cc4ccc5c(c4)OCCO5)c3)(O1)[C@H](O)[C@@H](O)[C@@H]2O` [Example 2, (1S,2S,3S,4R,5S)-5-(4-cyclopropyl-3-((2,3-dihydrobenzo[b][1,4]dioxin-6-yl)methyl)phenyl)-1-(hydroxymethyl)-6,8-dioxabicyclo[3.2.1]octane-2,3,4-triol] returned an IC50 of 3.67 nM. Besides, at SGLT1, the IC50 stood at 15.7 nM and the “inhibition of SGLT1 (conclusion in words)” value (shortened to “inhibition of SGLT1”) is “inhibited SGLT1”.
Take `OC[C@H]1S[C@@H](c2cc3c(c(Cc4ccc5c(c4)OCCO5)c2)OCC3)[C@H](O)[C@@H](O)[C@@H]1O` [Example 3, (2S,3R,4R,5S,6R)-2-(7-((2,3-dihydrobenzo[b][1,4]dioxin-6-yl)methyl)-2,3-dihydrobenzofuran-5-yl)-6-(hydroxymethyl)tetrahydro-2H-thiopyran-3,4,5-triol]: the IC50 on SGLT2 was found to be 19.8 nM; at SGLT1 it was 2560 nM.
In the case of `Cc1ccc([C@@H]2S[C@H](CO)[C@@H](O)[C@H](O)[C@H]2O)cc1Cc1ccc2c(c1)OCCO2` [Example 4, (2S,3R,4R,5S,6R)-2-(3-((2,3-dihydrobenzo[b][1,4]dioxin-6-yl)methyl)-4-methylphenyl)-6-(hydroxymethyl)tetrahydro-2H-thiopyran-3,4,5-triol], the IC50 came to 132 nM at SGLT2 and 89 nM at SGLT1. Further, the “inhibition of SGLT1” value against SGLT1 was “inhibited SGLT1”.
On to `CCCc1ccc([C@]23OC[C@](CO)(O2)[C@@H](O)[C@H](O)[C@H]3O)cc1Cc1ccc2c(c1)OCCO2` [Example 7, (1S,2S,3S,4R,5S)-5-(3-((2,3-dihydrobenzo[b][1,4]dioxin-6-yl)methyl)-4-propylphenyl)-1-(hydroxymethyl)-6,8-dioxabicyclo[3.2.1]octane-2,3,4-triol], for which inhibition on SGLT2 was half-maximal at 1.82 nM (IC50). On SGLT1, the midpoint of inhibition, the IC50, lay at 17.2 nM and the “inhibition of SGLT1” value is “inhibited SGLT1”.
`Cc1ccc([C@]23OC[C@](CO)(O2)[C@@H](O)[C@H](O)[C@H]3O)cc1Cc1ccc2c(c1)OCCO2` [Example 8, (1S,2S,3S,4R,5S)-5-(3-((2,3-dihydrobenzo[b][1,4]dioxin-6-yl)methyl)-4-methylphenyl)-1-(hydroxymethyl)-6,8-dioxabicyclo[3.2.1]octane-2,3,4-triol]: the IC50 at SGLT2 came to 583 nM; against SGLT1 it was 1.21 nM.
In turn, `CCc1ccc([C@]23OC[C@](CO)(O2)[C@@H](O)[C@H](O)[C@H]3O)cc1Cc1ccc2c(c1)OCCO2` [Example 9, (1S,2S,3S,4R,5S)-5-(3-((2,3-dihydrobenzo[b][1,4]dioxin-6-yl)methyl)-4-ethylphenyl)-1-(hydroxymethyl)-6,8-dioxabicyclo[3.2.1]octane-2,3,4-triol] yielded an IC50 against SGLT2 of 1.49 nM. On SGLT1, inhibition was half-maximal at 16.6 nM (IC50) and the “inhibition of SGLT1” value was “inhibited SGLT1”.
